Data published in patent US8343934B2, “Diverse lead compound autotaxin inhibitors” (University of Memphis, priority 2009, dated 2013).
pIC50: −log10 of the molar value.

Biological target: T1, ATX (Homo sapiens, UniProt Q13822)
T1 construct: conditioned serum-free medium (CCM) from MDA-MB-435 cells as the source of ATX; endogenous in cells; host or cells: MDA-MB-435 cells (about 10x concentrated conditioned serum-free medium)
Assay: ATX inhibition assay (FS-3 substrate)
Assay type: biochemical
Conditions: for pIC50: Calculated IC50 data for the 30 active compounds, FS-3 substrate; for % Response: preliminary screen, FS-3 hydrolysis at one hour, normalized to vehicle control, mean±S.D., same values given at 10 μM in Table 5
Description: ATX inhibition was assayed using the substrate FS-3 (Echelon Biosciences, Inc., Salt Lake City, Utah, USA). The FS-3 assay used ˜10 times concentrated conditioned serum-free medium (CCM) from MDA-MB-435 cells as the source of ATX, while CCM comprised one-third of the total volume. The final volume for FS-3 was comprised of the substrate at varying concentrations and 30 μM charcoal-stripped fatty acid free BSA (Sigma Aldrich) in assay buffer (1 mM each CaCl2 and MgCl2, 5 mM KCl, 140 mM NaCl, 50 mM Tris pH 8.0).
All assays were performed in 96-well plates with data read at 1 minute intervals by a Synergy2 system (BioTek, Winooski, Vt.). The fluorescence produced upon the hydrolysis of FS-3 was monitored using an excitation wavelength of 485 nm and an emission wavelength of 528 nm at 37° C. (Ferguson et al., 2006). […] All readings were normalized to vehicle control after subtraction of fluorescence in the absence of CCM. Data are shown as the mean±S.D. of at least three wells.

Row | SMILES | pIC50 | % Response
1 | Cc1ccc(N=Nc2c(S(=O)(=O)[O-])cc3cc(NC(=O)Nc4ccc5c(O)c(N=Nc6ccc7cc(S(=O)(=O)[O-])ccc7c6)c(S(=O)(=O)[O-])cc5c4)ccc3c2O)c(C)c1.[Na+].[Na+].[Na+] [compound 65575] | 4.73 | 33 ± 3.7%
2 | Cc1ccc(C)c(N=Nc2c(S(=O)(=O)O)cc3cc(NC(=O)Nc4ccc5c(O)c(N=Nc6ccc7cc(S(=O)(=O)O)ccc7c6)c(S(=O)(=O)O)cc5c4)ccc3c2O)c1.[Na+] [compound 65576] | 4.81 | 35 ± 5.8%
3 | COc1ccccc1N=Nc1c(S(=O)(=O)O)cc2cc(S(=O)(=O)O)c(N=Nc3ccc([N+](=O)[O-])cc3)c(N)c2c1O.[Na+] [compound 65829] | – | 71 ± 4.0%
4 | Cc1ccccc1N=Nc1ccc(N=Nc2c(S(=O)(=O)O)cc3cc(S(=O)(=O)O)c(N=Nc4ccc([N+](=O)[O-])cc4)c(N)c3c2O)c(C)c1.[Na+] [compound 65836] | – | 71 ± 4.6%
5 | Nc1ccc(N=Nc2ccc(-c3ccc(N=Nc4c(S(=O)(=O)O)cc5cc(S(=O)(=O)O)c(N=Nc6ccc([N+](=O)[O-])cc6)c(N)c5c4O)cc3)cc2)c(N)c1.[Na+] [compound 65848] | 4.82 | 48 ± 4.8%
6 | Cc1cc(N)ccc1N=Nc1ccc(-c2ccc(N=Nc3c(S(=O)(=O)O)cc4cc(S(=O)(=O)O)c(N=Nc5ccc([N+](=O)[O-])cc5)c(N)c4c3O)cc2)cc1.[Na+] [compound 65851] | 5.02 | 42 ± 3.5%
7 | Nc1ccc2cc(S(=O)(=O)O)cc(O)c2c1N=Nc1ccc(-c2ccc(N=Nc3c(S(=O)(=O)O)cc4cc(S(=O)(=O)O)c(N=Nc5ccc([N+](=O)[O-])cc5)c(N)c4c3O)cc2)cc1 [compound 65855] | 4.76 | 43 ± 3.8%
8 | O=C(Nc1ccc(Sc2ccc(N=Nc3c(O)c(S(=O)(=O)O)cc4cc(S(=O)(=O)O)ccc34)cc2)cc1)c1ccc(N=Nc2c(O)c(S(=O)(=O)O)cc3cc(S(=O)(=O)O)ccc23)cc1 [compound 65860] | – | 66 ± 4.4%
9 | Nc1c(N=Nc2ccc([N+](=O)[O-])cc2)c(S(=O)(=O)O)cc2cc(S(=O)(=O)O)c(N=Nc3ccc(-c4ccc(N=Nc5c(S(=O)(=O)O)cc6cc(S(=O)(=O)O)c(N=Nc7ccc([N+](=O)[O-])cc7)c(N)c6c5O)cc4)cc3)c(O)c12.[Na+] [compound 65869] | 4.64 | 46 ± 6.7%
10 | Nc1ccc(C(=O)Nc2ccc(NC(=O)Nc3ccc(NC(=O)c4ccc(N)cc4)c(S(=O)(=O)O)c3)cc2S(=O)(=O)O)cc1.[Na+] [compound 71960] | – | 88 ± 5.3%

Results, then the compound that gave them:

Row | pIC50 | % Response | SMILES
11 | 5.90 | 20 ± 5.7% | Nc1ccc2cc(S(=O)(=O)[O-])c(N=Nc3ccc(-c4ccc(N=Nc5c(S(=O)(=O)[O-])cc6cc(S(=O)(=O)[O-])cc(N)c6c5O)cc4)cc3)c(O)c2c1.[Na+].[Na+].[Na+] [compound 75779]
12 | – | 51 ± 4.4% | Cc1[nH]n(-c2cc(S(=O)(=O)O)ccc2Cl)c(=O)c1N=Nc1c(NC(=O)c2ccc(N)cc2)ccc2cc(S(=O)(=O)O)ccc12.[Na+] [compound 75963]
13 | 5.39 | 32 ± 2.7% | Nc1ccc(N=Nc2ccc(-c3ccc(N=Nc4c(S(=O)(=O)O)cc5cc(S(=O)(=O)O)c(N=Nc6ccc([N+](=O)[O-])cc6)c(N)c5c4O)cc3)cc2)c2cc(S(=O)(=O)O)ccc12.Nc1ccc(N=Nc2ccc(-c3ccc(N=Nc4c(S(=O)(=O)O)cc5cc(S(=O)(=O)O)c(N=Nc6ccc([N+](=O)[O-])cc6)c(N)c5c4O)cc3)cc2)c2ccc(S(=O)(=O)O)cc12 [compound 77520]
14 | 5.20 | 37 ± 2.6% | Nc1ccc(N=Nc2ccc(-c3ccc(N=Nc4c(S(=O)(=O)O)cc5cc(S(=O)(=O)O)c(N=Nc6cccc([N+](=O)[O-])c6)c(N)c5c4O)cc3)cc2)c(N)c1.[Na+] [compound 79593]
15 | – | 83 ± 3.2% | Nc1c(N=Nc2ccc([N+](=O)[O-])cc2)c(S(=O)(=O)O)cc2cc(S(=O)(=O)O)c(N=Nc3ccc(Sc4ccc(N=Nc5ccc(O)cc5)cc4)cc3)c(O)c12.[Na+] [compound 79723]
